Reference: paper PMC4440766, “Detection of Peptide-Based Nanoparticles in Blood Plasma by ELISA” (PLoS ONE, 2015)

Columns and labels:
[1] = ELISA quantification of peptide 5A in blood plasma after intravenous injection of peptide 5A nanoparticles; format: in vivo, Wistar rats
Experimental: (§1) The acrylamide based nanoparticles containing peptide 5A were injected in the lateral tail vein of 3 Wistar rats at a concentration of 17.25 mg of nanoparticle per kg of bodyweight, corresponding to 0.5 mg peptide 5A per kg of bodyweight. Blood samples were collected in lithium heparin plasma microtainer tubes (BD, Franklin Lakes, NJ). A small incision was made in the contralateral tail vein and the blood was collected directly into the tube. Immediately after collecting the blood, the tubes were manually inverted 8 times to ensure mixing with the anti-coagulant. Blood samples were stored on ice for up to 30 minutes before separating the plasma by centrifugation at 2000 g for 10 minutes. No hemolysis was observed.
Samples were collected from each animal immediately after injection (time point 0) and at 15, 30, 60, 120, 240, 480 minutes after injection. All plasma samples were stored at -80°C until further analysis.
The plasma samples were diluted 1/500 in PBS, based on the range of the standard curve and the expected initial plasma concentrations. Streptavidin coated ELISA 96-well microplates (Steffens Biotechnische Analysen, Germany) were rinsed with 100 μl PBS per well and incubated with plasma samples in duplicate, for one hour at room temperature. After washing the wells three times with PBS, the carboxyfluorescein group present on the reporter peptide was detected by incubating with monoclonal (mAb) mouse-anti-fluorescein peroxidase-conjugated IgG (Dianova, Hamburg, Germany) diluted 1:100,000 in PBS with 0.1% BSA for one hour. Subsequently, the wells were washed three times with PBS and incubated with soluble high sensitivity TMB (SDT, Baesweiler, Germany) for 10 minutes in the dark. The enzymatic peroxidase reaction was stopped with 1 M HCl and absorbance at 450 nm was measured on a VICTOR X3 Multilabel Plate Reader (Perkin Elmer, Waltham, MA). All incubations were performed at room temperature on a plate shaker at 650 rpm. The wells were washed with PBS three times both after sample and antibody incubation. The TMB reaction was performed in the dark for 10 minutes. […] The absorbance at 450 nm of the negative controls was considered as background and subtracted from the absorbance of the plasma samples.
Free peptide 5A was used as a positive control in the ELISA described above with a lower limit of detection of 1 ng/mL (data not shown). Nanoparticles containing a known concentration of peptide 5A, were used to generate a standard curve for the quantification of blood plasma samples. The standard curve data were fitted to a Hill curve using Graphpad Prism (Graphpad Software, La Jolla, CA) and the Hill equation was used to calculate the concentration of peptide 5A in blood plasma samples from the absorbance at 450 nm (See S1 Table).

[2] = LC/MS quantification of peptide 5A in blood plasma of nanoparticle injected rats; format: in vivo, Wistar rats; conditions: same rat plasma samples
Experimental: as §1, with “observed. […]” for “observed.”
Peptide 5A standards were prepared by spiking rat plasma with peptide 5A+B and subsequently reducing the disulfide bond between peptide 5A and 5B, yielding free peptide 5A as depicted in Fig 1. […] (Neither the peaks corresponding to the mass of peptide 5B nor the unreduced peptide 5A+B were analyzed, see LC-MS analysis section). […]
Plasma samples for LC/MS were prepared by adding 300 μL of 10 mM TCEP in loading mobile phase mix to 30 μL of sample. […] The filtrate was transferred to autosampler vials and analyzed or frozen at -80°C until analysis.
Samples with expected concentrations higher than the upper limit of quantification were diluted with rat plasma prior to sample preparation. […]

[3] = i.v. nanoparticles 17.25 mg/kg = 0.5 mg peptide 5A per kg, Wistar rats, n = 3

napvsipqKGGC [peptide 5A, reporter peptide napvsipqKGGC functionalized with biotin and carboxyfluorescein, attached to nanoparticles]
peptide 5A plasma concentration (ELISA), highest concentration ([1]; 15 minutes after injection, i.v. lateral tail vein, nanoparticles 17.25 mg/kg = 0.5 mg peptide 5A per kg, male Wistar rats, plasma diluted 1/500 in PBS, mean ± S.E.M., 3 animals): 2706 ± 466 ng/mL
time after injection up to which the peptide was detected in plasma (ELISA) [1, 3]: up to 2 hours
time of highest plasma concentration (ELISA) [1, 3]: 15 min
peptide 5A plasma concentration (ELISA) ([1]; time point 0 (immediately after injection), i.v. lateral tail vein, nanoparticles 17.25 mg/kg = 0.5 mg peptide 5A per kg, male Wistar rats, plasma diluted 1/500 in PBS, mean ± S.E.M., 3 animals): 1661 ± 514 ng/mL
factor by which plasma concentrations measured by LC/MS were higher than by ELISA [2]: ~4
